# In US20250127788A1, “PHARMACEUTICAL COMPOSITION CONTAINING TRIAZINE DERIVATIVE” (Shionogi & Co., Ltd., priority 2021, published 2025):
# Where two headings read alike, the source gives them in different places.
# Tests used:
# [1] = system: SARS-CoV-2 Omicron Strain; assay: Test Example 1-3: CPE suppression in Vero E6/TMPRSS2 cells, Omicron strains; format: cell-based
# HCoV-229E = assay: Test Example 8: antiviral effect on HCoV-229E (MRC-5 cells, CellTiter-Glo); format: cell-based; settings: Human coronavirus 229E, MRC5, read-out: EC50 (50% HCoV-229E infected cell death inhibitory concentration), 72 hours
# Experimental: Test Example 8: Antiviral Effect on HCoV-229E
# The test sample is preliminarily diluted with DMSO to an appropriate concentration, and a 3-fold serial dilution series is prepared and then dispensed into a 96-well plate and diluted in a maintenance medium (MEM, 2% FBS, penicillin-streptomycin).
# MRC-5 cells (2×10^4 cells/well) suspended in a subculture medium (DMEM, 10% FBS, penicillin-streptomycin) are seeded in a 96-well plate a day before infection, and the next day, HCoV-229E (1000 TCID50/well) suspended in a maintenance medium (MEM, 2% FBS, penicillin-streptomycin) is infected for 1 hour. Thereafter, virus fluid is removed, a maintenance medium including a test reagent is added, and culturing is carried out in a CO2 incubator for 72 hours. Furthermore, in order to examine cytotoxicity of the test reagent, the same operation is performed in the absence of virus.
# After returning the plate cultured for 72 hours to room temperature, CellTiter-Glo (registered trademark) 2.0 is dispensed into each well and mixed with a plate mixer. After a certain time interval, the luminescence signal (Lum) is measured with a plate reader.
# When x is taken as the logarithmic value of the compound concentration and y as % Efficacy, the inhibition curve is approximated by the following Logistic regression equation, and the value of x when substituting 50(%) for y is calculated as EC50.
# [formula] […]
# [2] = system: SARS-CoV-2 hCoV-19/Japan/TY7-501/2021; assay: Test Example 9: influence of human serum and mouse serum on anti-SARS-CoV-2 activity; format: cell-based; settings: Severe acute respiratory syndrome coronavirus 2, serum 100% condition by linear regression
# SARS-CoV-2 [3] = assay: microbe, parasite or virus in culture; format: cell-based; settings: Severe acute respiratory syndrome coronavirus 2, HEK-293T; HEK293T/ACE2-TMPRSS2 cells; strains WK-521, QK002, TY7-501, TY8-612, TY11-927-P1
# [4] = system: SARS-CoV-2 hCoV-19/Japan/TY38-873/2021; assay: Test Example 10-2: CPE suppression in HEK293T/ACE2-TMPRSS2 cells (TY38-873); format: cell-based; settings: Severe acute respiratory syndrome coronavirus 2, HEK-293T
# [5] = system: SARS-CoV-2 hCoV19/Japan/TY11-927/2021 strain; format: in vivo, Syrian hamsters; settings: 6 days after start
# [6] = system: SARS-CoV-2 hCoV19/Japan/TY11-927/2021 strain; set-up: species or system Syrian hamsters; settings: in vivo
# [7] = system: SARS-CoV-2 hCoV19/Japan/TY11-927/2021 strain; format: in vivo, Syrian hamsters; settings: 3 days after start of living together
# in vitro = settings: human
# SARS-CoV Hanoi strain = assay: microbe, parasite or virus in culture; settings: Severe acute respiratory syndrome coronavirus, VeroE6/TMPRSS2, 72 h, read-out: EC50 (50% virus infected cell death inhibitory concentration)
# HCoV-OC43 = assay: microbe, parasite or virus in culture; settings: Betacoronavirus 1, OC43, MRC5, 42 h, read-out: EC90 (90% HCoV-OC43 viral replication inhibitory concentration)
# [8] = biological target: SARS-CoV-2 3CL Protease WT (Severe acute respiratory syndrome coronavirus 2 (2019-nCoV) (SARS-CoV-2), UniProt P0DTD1); assay: biochemical; settings: read-out: EC50 (table head; method calculates IC50)
# [9] = biological target: Recombinant SARS-CoV-2 3CL Protease (Severe acute respiratory syndrome coronavirus 2 (2019-nCoV) (SARS-CoV-2), UniProt P0DTD1); assay: Test Example 2: inhibitory activity test against SARS-CoV-2 3CL protease; format: biochemical; settings: class symbols
# SARS-CoV-2 [10] = assay: microbe, parasite or virus in culture; format: cell-based; settings: Severe acute respiratory syndrome coronavirus 2, 72 h; VeroE6/TMPRSS2 cells, 3 days; class symbols
SMILES,IC50 [9],EC50 (SARS-CoV-2 [10]),also measured
Cn1cnc(Cn2c(=O)[nH]/c(=N\c3cc4cn(C)nc4cc3Cl)n(Cc3cc(F)c(F)cc3F)c2=O)n1,–,–,"EC50 ([1]; Severe acute respiratory syndrome coronavirus 2, VeroE6/TMPRSS2, Omicron TY38-871 (BA.1.1)): 360 nM; EC50 ([1]; Severe acute respiratory syndrome coronavirus 2, VeroE6/TMPRSS2, Omicron TY38-873 (BA.1)): 290 nM; EC50 ([1]; Severe acute respiratory syndrome coronavirus 2, VeroE6/TMPRSS2, Omicron TY40-385 (BA.2)): 520 nM; EC50 ([1]; Severe acute respiratory syndrome coronavirus 2, VeroE6/TMPRSS2, Omicron TY41-686 (XE)): 440 nM; EC50 ([1]; Severe acute respiratory syndrome coronavirus 2, VeroE6/TMPRSS2, Omicron TY41-702 (BA.5)): 400 nM; EC50 ([1]; Severe acute respiratory syndrome coronavirus 2, VeroE6/TMPRSS2, Omicron TY41-703 (BA.4)): 220 nM; EC50 ([1]; Severe acute respiratory syndrome coronavirus 2, VeroE6/TMPRSS2, Omicron TY41-716 (BA.2.75)): 300 nM; EC50 (HCoV-229E): 5530 nM; EC50 ([2]; human serum, read-out: human serum PA-EC50 (protein-adjusted EC50)): 3020 nM; EC50 ([2]; mouse serum, read-out: mouse serum PA-EC50 (protein-adjusted EC50)): 3930 nM; EC50 (SARS-CoV-2 [3]): 26 to 58 nM; EC50 [4]: 83 nM; lung virus titer of administered hamsters co-housed with infected hamster ([5]; 30 mg/kg oral twice a day for six days): 3.48 log10 PFU50/mL; lung virus titer of administered hamsters co-housed with infected hamster ([5]; 200 mg/kg oral twice a day for six days): a detection limit value or less; lung virus titer of uninfected hamsters co-housed with treated infected hamster [6]: the detection limit value or less; intranasal concha virus titer of uninfected hamster co-housed with treated infected hamster [7]: 2.89 log10 TCID50/mL; lung virus titer of uninfected hamster co-housed with treated infected hamster [7]: 2.97 log10 TCID50/mL; CC50 (in vitro): > 200000 nM; EC50 (SARS-CoV Hanoi strain): 209 nM; EC90 (HCoV-OC43): 74 nM"
Cc1cncc(-n2c(=O)nc(Nc3cc4cn(C)nc4cc3Cl)n(Cc3cc(F)c(F)c(F)c3)c2=O)c1,–,–,IC50 [8]: 16.7 nM
Cc1nc2cc(C)c(Nc3nc(=O)n(Cc4c[nH]cn4)c(=O)n3Cc3cc(F)c(F)c(F)c3)cc2s1 [Compound I-001],1000 to 10000 nM,–,–
Cc1cncc(-n2c(=O)nc(Nc3cc4cn(C)nc4cc3F)n(Cc3cc(F)c(F)c(F)c3)c2=O)c1 [Compound I-002],< 100 nM,< 1000 nM,–
Cc1cncc(-n2c(=O)nc(Nc3cc4cn(C)nc4cc3C)n(Cc3cc(F)c(F)c(F)c3)c2=O)c1 [Compound I-004],< 100 nM,1000 to 10000 nM,–
CC(=O)N1CC(n2cc3cc(Nc4nc(=O)n(-c5cncc6ccccc56)c(=O)n4Cc4cc(F)c(F)c(F)c4)c(Cl)cc3n2)C1 [Compound I-007],< 100 nM,–,–
Cn1cc2cc(Nc3nc(=O)n(-c4cncc(CO)c4)c(=O)n3Cc3cc(F)c(F)c(F)c3)ccc2n1 [Compound I-008],100 to 1000 nM,–,–
N#Cc1cc(Cn2c(Nc3ccc4nn(CC(F)F)cc4c3)nc(=O)n(-c3cncc4ccccc34)c2=O)ccc1F [Compound I-009],< 100 nM,< 1000 nM,–
Cc1cncc(-n2c(=O)nc(Nc3ccc4nn(CC(F)F)cc4c3)n(Cc3ccc(F)c(C#N)c3)c2=O)c1 [Compound I-011],< 100 nM,< 1000 nM,–
Cc1cc2nn(C)cc2cc1Nc1nc(=O)n(-c2cncc3ccccc23)c(=O)n1Cc1cc(F)c(F)c(F)c1 [Compound I-013],< 100 nM,1000 to 10000 nM,–
Cn1cc2cc(Nc3nc(=O)n(-c4cncc5ccccc45)c(=O)n3Cc3cc(F)c(F)c(F)c3)c(Cl)cc2n1 [Compound I-014],< 100 nM,< 1000 nM,–
Cn1cc2cc(Nc3nc(=O)n(-c4cncc5ccccc45)c(=O)n3Cc3ccc(F)c(C#N)c3)c(Cl)cc2n1 [Compound I-015],< 100 nM,< 1000 nM,–
Cn1cc2cc(Nc3nc(=O)n(-c4cncc5ccccc45)c(=O)n3Cc3cc(F)c(F)c(F)c3)ccc2n1 [Compound I-016],< 100 nM,< 1000 nM,–
Cc1cncc(-n2c(=O)nc(Nc3cc4cn(C)nc4cc3F)n(Cc3ccc(F)c(C#N)c3)c2=O)c1 [Compound I-018],< 100 nM,< 1000 nM,–
Cc1cncc(-n2c(=O)nc(Nc3cc4cn(C)nc4cc3C)n(Cc3ccc(F)c(C#N)c3)c2=O)c1 [Compound I-019],< 100 nM,< 1000 nM,–
O=c1nc(Nc2cc3cn(CCN4CCOCC4)nc3cc2Cl)n(Cc2cc(F)c(F)c(F)c2)c(=O)n1-c1cncc2ccccc12 [Compound I-020],< 100 nM,1000 to 10000 nM,–
Cn1cnc(Cn2c(=O)nc(Nc3cc4cn(C)nc4cc3Cl)n(Cc3cc(F)c(F)c(F)c3)c2=O)n1 [Compound I-021],< 100 nM,< 1000 nM,–
Cc1nc2cc(Cl)c(Nc3nc(=O)n(Cc4ncn(C)n4)c(=O)n3Cc3cc(F)c(F)c(F)c3)cc2n1C [Compound I-022],< 100 nM,1000 to 10000 nM,–
N#Cc1cc(Cn2c(Nc3cc4cn(C(F)F)nc4cc3Cl)nc(=O)n(-c3cncc4ccccc34)c2=O)ccc1F [Compound I-024],< 100 nM,< 1000 nM,–
Cn1cc2cc(Nc3nc(=O)n(-c4cncc5ccccc45)c(=O)n3Cc3ccc(F)c(C#N)c3)c(F)cc2n1 [Compound I-025],< 100 nM,< 1000 nM,–
Cc1cncc(-n2c(=O)nc(Nc3cc4cn(C(F)F)nc4cc3Cl)n(Cc3ccc(F)c(C#N)c3)c2=O)c1 [Compound I-026],< 100 nM,< 1000 nM,–
Cc1cc2nn(C)cc2cc1Nc1nc(=O)n(-c2cncc3ccccc23)c(=O)n1Cc1ccc(F)c(C#N)c1 [Compound I-027],< 100 nM,< 1000 nM,–
Cn1cnc(Cn2c(=O)nc(Nc3cc4cn(CCO)nc4cc3Cl)n(Cc3cc(F)c(F)c(F)c3)c2=O)n1 [Compound I-028],< 100 nM,1000 to 10000 nM,–
Cn1cnc(Cn2c(=O)nc(Nc3cc4cn(CC(F)F)nc4cc3Cl)n(Cc3cc(F)c(F)c(F)c3)c2=O)n1 [Compound I-029],< 100 nM,< 1000 nM,–
Cn1cnc(Cn2c(=O)nc(Nc3cc4cn(C(F)F)nc4cc3Cl)n(Cc3cc(F)c(F)c(F)c3)c2=O)n1 [Compound I-030],< 100 nM,1000 to 10000 nM,–
Cc1nc2cc(Cl)c(Nc3nc(=O)n(-c4cncc5ccccc45)c(=O)n3Cc3cc(F)c(F)c(F)c3)cc2n1C [Compound I-032],< 100 nM,1000 to 10000 nM,–
CC(=O)NCCn1cc2cc(Nc3nc(=O)n(-c4cncc5ccccc45)c(=O)n3Cc3cc(F)c(F)c(F)c3)c(Cl)cc2n1 [Compound I-033],< 100 nM,1000 to 10000 nM,–
O=c1nc(Nc2ccc3nn(CC(F)F)cc3c2)n(Cc2cc(F)c(F)c(F)c2)c(=O)n1-c1cncc2ccccc12 [Compound I-034],< 100 nM,< 1000 nM,–
